Data published in the NIST ThermoML archive (doi:10.1016/j.jct.2016.06.023).
Numbers after ± are expanded uncertainties.

Assay: mn = molality of the nth substance listed, in mol/kg
Settings: 101.3 kPa, Liquid, Vibrating tube method

Structure (SMILES): O=C(O)CC(=O)O [propanedioic acid] + O
- mass density (278.15 K, m1 = 0.01001): 1000.48 ± 0.4 kg/m3
- mass density (278.15 K, m1 = 0.02001): 1000.91 ± 0.4 kg/m3
- mass density (278.15 K, m1 = 0.03): 1001.31 ± 0.4 kg/m3
- mass density (278.15 K, m1 = 0.03962): 1001.73 ± 0.4 kg/m3
- mass density (278.15 K, m1 = 0.04998): 1002.16 ± 0.4 kg/m3
- mass density (278.15 K, m1 = 0.05936): 1002.53 ± 0.4 kg/m3
- mass density (278.15 K, m1 = 0.06926): 1002.93 ± 0.4 kg/m3
- mass density (278.15 K, m1 = 0.07949): 1003.34 ± 0.4 kg/m3
- mass density (278.15 K, m1 = 0.08906): 1003.73 ± 0.4 kg/m3
- mass density (278.15 K, m1 = 0.09935): 1004.11 ± 0.4 kg/m3
- mass density (278.15 K, m1 = 0.1984): 1008.06 ± 0.4 kg/m3
- mass density (278.15 K, m1 = 0.2977): 1011.96 ± 0.4 kg/m3
- mass density (278.15 K, m1 = 0.404): 1016 ± 0.4 kg/m3
- mass density (278.15 K, m1 = 0.5055): 1019.85 ± 0.4 kg/m3
- mass density (278.15 K, m1 = 0.6055): 1023.51 ± 0.4 kg/m3
- mass density (278.15 K, m1 = 0.6936): 1026.73 ± 0.4 kg/m3
- mass density (278.15 K, m1 = 0.7926): 1030.29 ± 0.41 kg/m3
- mass density (278.15 K, m1 = 0.891): 1033.82 ± 0.41 kg/m3
- mass density (278.15 K, m1 = 0.9895): 1037.16 ± 0.41 kg/m3
- mass density (283.15 K, m1 = 0.01001): 1000.21 ± 0.4 kg/m3
- mass density (283.15 K, m1 = 0.02001): 1000.62 ± 0.4 kg/m3
- mass density (283.15 K, m1 = 0.03): 1001 ± 0.4 kg/m3
- mass density (283.15 K, m1 = 0.03962): 1001.4 ± 0.4 kg/m3
- mass density (283.15 K, m1 = 0.04998): 1001.83 ± 0.4 kg/m3
- mass density (283.15 K, m1 = 0.05936): 1002.19 ± 0.4 kg/m3
- mass density (283.15 K, m1 = 0.06926): 1002.58 ± 0.4 kg/m3
- mass density (283.15 K, m1 = 0.07949): 1002.98 ± 0.4 kg/m3
- mass density (283.15 K, m1 = 0.08906): 1003.36 ± 0.4 kg/m3
- mass density (283.15 K, m1 = 0.09935): 1003.73 ± 0.4 kg/m3
- mass density (283.15 K, m1 = 0.1984): 1007.6 ± 0.4 kg/m3
- mass density (283.15 K, m1 = 0.2977): 1011.4 ± 0.4 kg/m3
- mass density (283.15 K, m1 = 0.404): 1015.36 ± 0.4 kg/m3
- mass density (283.15 K, m1 = 0.5055): 1019.12 ± 0.4 kg/m3
- mass density (283.15 K, m1 = 0.6055): 1022.71 ± 0.4 kg/m3
- mass density (283.15 K, m1 = 0.6936): 1025.86 ± 0.4 kg/m3
- mass density (283.15 K, m1 = 0.7926): 1029.35 ± 0.4 kg/m3
- mass density (283.15 K, m1 = 0.891): 1032.8 ± 0.41 kg/m3
- mass density (283.15 K, m1 = 0.9895): 1036.1 ± 0.41 kg/m3
- mass density (288.15 K, m1 = 0.01001): 999.61 ± 0.4 kg/m3
- mass density (288.15 K, m1 = 0.02001): 1000.03 ± 0.4 kg/m3
- mass density (288.15 K, m1 = 0.03): 1000.4 ± 0.4 kg/m3
- mass density (288.15 K, m1 = 0.03962): 1000.79 ± 0.4 kg/m3
- mass density (288.15 K, m1 = 0.04998): 1001.21 ± 0.4 kg/m3
- mass density (288.15 K, m1 = 0.05936): 1001.57 ± 0.4 kg/m3
- mass density (288.15 K, m1 = 0.06926): 1001.95 ± 0.4 kg/m3
- mass density (288.15 K, m1 = 0.07949): 1002.34 ± 0.4 kg/m3
- mass density (288.15 K, m1 = 0.08906): 1002.71 ± 0.4 kg/m3
- mass density (288.15 K, m1 = 0.09935): 1003.07 ± 0.4 kg/m3
- mass density (288.15 K, m1 = 0.1984): 1006.87 ± 0.4 kg/m3
- mass density (288.15 K, m1 = 0.2977): 1010.6 ± 0.4 kg/m3
- mass density (288.15 K, m1 = 0.404): 1014.47 ± 0.4 kg/m3
- mass density (288.15 K, m1 = 0.5055): 1018.15 ± 0.4 kg/m3
- mass density (288.15 K, m1 = 0.6055): 1021.67 ± 0.4 kg/m3
- mass density (288.15 K, m1 = 0.6936): 1024.77 ± 0.4 kg/m3
- mass density (288.15 K, m1 = 0.7926): 1028.19 ± 0.4 kg/m3
- mass density (288.15 K, m1 = 0.891): 1031.58 ± 0.4 kg/m3
- mass density (288.15 K, m1 = 0.9895): 1034.82 ± 0.41 kg/m3
- mass density (293.15 K, m1 = 0.01001): 998.7 ± 0.4 kg/m3
- mass density (293.15 K, m1 = 0.02001): 999.1 ± 0.4 kg/m3
- mass density (293.15 K, m1 = 0.03): 999.47 ± 0.4 kg/m3
- mass density (293.15 K, m1 = 0.03962): 999.85 ± 0.4 kg/m3
- mass density (293.15 K, m1 = 0.04998): 1000.27 ± 0.4 kg/m3
- mass density (293.15 K, m1 = 0.05936): 1000.61 ± 0.4 kg/m3
- mass density (293.15 K, m1 = 0.06926): 1000.99 ± 0.4 kg/m3
- mass density (293.15 K, m1 = 0.07949): 1001.37 ± 0.4 kg/m3
- mass density (293.15 K, m1 = 0.08906): 1001.73 ± 0.4 kg/m3
- mass density (293.15 K, m1 = 0.09935): 1002.12 ± 0.4 kg/m3
- mass density (293.15 K, m1 = 0.1984): 1005.8 ± 0.4 kg/m3
- mass density (293.15 K, m1 = 0.2977): 1009.46 ± 0.4 kg/m3
- mass density (293.15 K, m1 = 0.404): 1013.26 ± 0.4 kg/m3
- mass density (293.15 K, m1 = 0.5055): 1016.89 ± 0.4 kg/m3
- mass density (293.15 K, m1 = 0.6055): 1020.35 ± 0.4 kg/m3
- mass density (293.15 K, m1 = 0.6936): 1023.39 ± 0.4 kg/m3
- mass density (293.15 K, m1 = 0.7926): 1026.76 ± 0.4 kg/m3
- mass density (293.15 K, m1 = 0.891): 1030.1 ± 0.4 kg/m3
- mass density (293.15 K, m1 = 0.9895): 1033.27 ± 0.41 kg/m3
- mass density (298.15 K, m1 = 0.01001): 997.52 ± 0.4 kg/m3
- mass density (298.15 K, m1 = 0.02001): 997.93 ± 0.4 kg/m3
- mass density (298.15 K, m1 = 0.03): 998.3 ± 0.4 kg/m3
- mass density (298.15 K, m1 = 0.03962): 998.66 ± 0.4 kg/m3
- mass density (298.15 K, m1 = 0.04998): 999.07 ± 0.4 kg/m3
- mass density (298.15 K, m1 = 0.05936): 999.4 ± 0.4 kg/m3
- mass density (298.15 K, m1 = 0.06926): 999.78 ± 0.4 kg/m3
- mass density (298.15 K, m1 = 0.07949): 1000.15 ± 0.4 kg/m3
- mass density (298.15 K, m1 = 0.08906): 1000.52 ± 0.4 kg/m3
- mass density (298.15 K, m1 = 0.09935): 1000.89 ± 0.4 kg/m3
- mass density (298.15 K, m1 = 0.1984): 1004.55 ± 0.4 kg/m3
- mass density (298.15 K, m1 = 0.2977): 1008.15 ± 0.4 kg/m3
- mass density (298.15 K, m1 = 0.404): 1011.88 ± 0.4 kg/m3
- mass density (298.15 K, m1 = 0.5055): 1015.45 ± 0.4 kg/m3
- mass density (298.15 K, m1 = 0.6055): 1018.85 ± 0.4 kg/m3
- mass density (298.15 K, m1 = 0.6936): 1021.85 ± 0.4 kg/m3
- mass density (298.15 K, m1 = 0.7926): 1025.16 ± 0.4 kg/m3
- mass density (298.15 K, m1 = 0.891): 1028.44 ± 0.4 kg/m3
- mass density (298.15 K, m1 = 0.9895): 1031.58 ± 0.4 kg/m3
- mass density (303.15 K, m1 = 0.01001): 996.14 ± 0.4 kg/m3
- mass density (303.15 K, m1 = 0.02001): 996.53 ± 0.4 kg/m3
- mass density (303.15 K, m1 = 0.03): 996.9 ± 0.4 kg/m3
- mass density (303.15 K, m1 = 0.03962): 997.28 ± 0.4 kg/m3
- mass density (303.15 K, m1 = 0.04998): 997.66 ± 0.4 kg/m3
- mass density (303.15 K, m1 = 0.05936): 997.99 ± 0.4 kg/m3
- mass density (303.15 K, m1 = 0.06926): 998.37 ± 0.4 kg/m3
- mass density (303.15 K, m1 = 0.07949): 998.72 ± 0.4 kg/m3
- mass density (303.15 K, m1 = 0.08906): 999.08 ± 0.4 kg/m3
- mass density (303.15 K, m1 = 0.09935): 999.45 ± 0.4 kg/m3
- mass density (303.15 K, m1 = 0.1984): 1003.05 ± 0.4 kg/m3
- mass density (303.15 K, m1 = 0.2977): 1006.6 ± 0.4 kg/m3
- mass density (303.15 K, m1 = 0.404): 1010.27 ± 0.4 kg/m3
- mass density (303.15 K, m1 = 0.5055): 1013.79 ± 0.4 kg/m3
- mass density (303.15 K, m1 = 0.6055): 1017.14 ± 0.4 kg/m3
- mass density (303.15 K, m1 = 0.6936): 1020.08 ± 0.4 kg/m3
- mass density (303.15 K, m1 = 0.7926): 1023.35 ± 0.4 kg/m3
- mass density (303.15 K, m1 = 0.891): 1026.58 ± 0.4 kg/m3
- mass density (303.15 K, m1 = 0.9895): 1029.66 ± 0.4 kg/m3
- mass density (308.15 K, m1 = 0.01001): 994.51 ± 0.4 kg/m3
- mass density (308.15 K, m1 = 0.02001): 994.89 ± 0.4 kg/m3
- mass density (308.15 K, m1 = 0.03): 995.23 ± 0.4 kg/m3
- mass density (308.15 K, m1 = 0.03962): 995.6 ± 0.4 kg/m3
- mass density (308.15 K, m1 = 0.04998): 996 ± 0.4 kg/m3
- mass density (308.15 K, m1 = 0.05936): 996.33 ± 0.4 kg/m3
- mass density (308.15 K, m1 = 0.06926): 996.69 ± 0.4 kg/m3
- mass density (308.15 K, m1 = 0.07949): 997.06 ± 0.4 kg/m3
- mass density (308.15 K, m1 = 0.08906): 997.4 ± 0.4 kg/m3
- mass density (308.15 K, m1 = 0.09935): 997.74 ± 0.4 kg/m3
- mass density (308.15 K, m1 = 0.1984): 1001.28 ± 0.4 kg/m3
- mass density (308.15 K, m1 = 0.2977): 1004.77 ± 0.4 kg/m3
- mass density (308.15 K, m1 = 0.404): 1008.39 ± 0.4 kg/m3
- mass density (308.15 K, m1 = 0.5055): 1011.84 ± 0.4 kg/m3
- mass density (308.15 K, m1 = 0.6055): 1015.15 ± 0.4 kg/m3
- mass density (308.15 K, m1 = 0.6936): 1018.07 ± 0.4 kg/m3
- mass density (308.15 K, m1 = 0.7926): 1021.29 ± 0.4 kg/m3
- mass density (308.15 K, m1 = 0.891): 1024.47 ± 0.4 kg/m3
- mass density (308.15 K, m1 = 0.9895): 1027.51 ± 0.4 kg/m3
